Experiments:
[1] = tested on: subcutaneous flank SKOV-3 tumors; experiment: T1-weighted MRI of tumor accumulation in tumor-bearing mice; format: in vivo, nu/nu mice; conditions: IV, gadolinium 0.072 mmoles/kg, SKOV-3 tumor-bearing mice, n=3
[2] = T1 relaxation time by MRI phantom, 4.7 Tesla; format: physicochemical; conditions: same gadolinium concentration, Avg ± SD, n=3

Structure (SMILES): CNC[C@H](O)[C@@H](O)[C@H](O)[C@H](O)CO.CNC[C@H](O)[C@@H](O)[C@H](O)[C@H](O)CO.O=C([O-])CN(CCN(CC(=O)[O-])CC(=O)O)CCN(CC(=O)[O-])CC(=O)O.[Gd+3] [Magnevist]
- time to clear from the tumor (T1-weighted images) ([1]; Figure 4A): ≤ 6 h
- time to clear from tumor tissues (relative T1 signal, % tumor signal vs time) ([1]; Figure 4B): ≤ 5 h
- T1 Relaxivity [2]: 22 ms
